{"source": "patent US20230212571A1", "about": "“COMPOSITIONS AND METHODS FOR DELIVERING POLYNUCLEOTIDES” (NeOnc Technologies, Inc., priority 2020, published 2023)", "key": {"AVM-BEC": {"system": "AVM-BEC", "assay": "Western blot of AVM-BEC lysates", "format": "cell-based, human", "text": "Human surgical specimens were obtained following written informed consent from patients in accordance with Declaration of Helsinki guidelines and the Institutional Review Board (HS-04B053), at Keck School of Medicine, USC. AVM-BECs were isolated from brain tissues of patients who underwent microsurgical AVM resection. Control BECs were isolated from the structurally normal […] of patients who underwent temporal lobectomy for intractable epilepsy. Endothelial cell (EC) isolation and culture were described^5,9. (Stapleton C J, Armstrong D L, Zidovetzki R, Liu C Y, Giannotta S L, Hofman F M. Thrombospondin-1 modulates the angiogenic phenotype of human cerebral arteriovenous malformation endothelial cells. Neurosurgery. 2011; 68(5):1342-1353) (Ferreira R, Santos T, Amar A, et al. Argonaute-2 promotes miR-18a entry in human brain endothelial cells. J Am Heart Assoc. 2014; 3(3):e000968) ECs were only used between passages 3-5. Experiments were performed under shear flow conditions (12 dyn/cm^2) to reproduce arterial flow^6. (Ferreira R, Santos T, Amar A, et al. MicroRNA-18a improves human cerebral arteriovenous malformation endothelial cell function. Stroke. 2014; 45(1):293-297). For hypoxic experiments, cells were cultured in a Galaxy 48R (Eppendorf) incubator at 3% O2. MicroRNAs were co-administered with Ago-2 to increase the cellular uptake of miR-18a^9 (Ferreira R, Santos T, Amar A, et al. Argonaute-2 promotes miR-18a entry in human brain endothelial cells. J Am Heart Assoc. 2014; 3(3):e000968) (FIG. 9). Methods regarding cell treatments and transfections were included in Data.\nMiR-18a (hsa-miR-18a-5p, 40 nM, Dharmacon) or a scramble microRNA (40 nM, Dharmacon) in nuclease-free water was added with argonaute 2 (Ago-2, 0.4 nM, Abcam) as the microRNA carrier and stabilizer^9. (Ferreira R, Santos T, Amar A, et al. Argonaute-2 promotes miR-18a entry in human brain endothelial cells. J Am Heart Assoc. 2014; 3(3):e000968). No transfection reagent was used with miR-18a or scramble microRNA treatments. Recombinant human TSP-1 (R&D Systems) stock solution was prepared in PBS and further diluted in culture medium to be used at a final concentration of 1000 ng/mL. Cells were treated during 24 h for mRNA and 48 h for protein expression studies. NEO100 (NeOnc Technologies) stock was prepared in DMSO and used immediately or stored at −20° C.\nThe levels of angiogenesis-related proteins were analyzed using the Proteome Profiler™ Human Angiogenesis Array kit (R&D Systems) following the manufacturer's instructions. The protocol for western blot was published^10. (Marín-Ramos N I, Alonso D, Ortega-Gutiérrez S, et al. New inhibitors of angiogenesis with antitumor activity in vivo. J Med Chem. 2015; 58(9):3757-3766). Information about antibodies used was included in Table 1. Membranes were visualized and quantified using a C-Digit Blot scanner (Li-Cor) or a iBright CL1000 (Thermo Fisher Scientific)."}, "[1]": {"system": "Mgp^−/− mouse model of AVM", "assay": "In vivo computed tomography angiography (CTA) of brain vasculature", "description": "In vivo ultra-high-resolution computed tomography angiography (CTA) was performed to study changes in neurovascular architecture like methods described previously. (Mukundan S, Jr., […], Badea C T, et al. A liposomal nanoscale contrast agent for preclinical CT in mice. AJR Am J Roentgenol. 2006; 186(2):300-307) ([…], Rendon D, et al. Ultra-High-Resolution In vivo Computed Tomography Imaging of Mouse Cerebrovasculature Using a Long Circulating Blood Pool Contrast Agent. Scientific reports. 2015; 5:10178). Briefly, mice were anesthetized using 3-4% isoflurane, positioned on a CT cradle and maintained at 1-1.5% isoflurane delivered via nose cone. Mice were intravenously injected a long circulating liposomal-iodine blood pool contrast agent (2.2 g/kg body weight) for CTA^8,9 and scanned on a small animal micro-CT scanner Rigaku CT Lab GX90-1-E. The following scan parameters were used: High Resolution Scan Mode, 70 kVp, 114 uA, 10 mm FOV, 1440 projections, 20 μm voxel size, 14 min scan time. All animal protocols were approved by the USC's Institutional Animal Care and Use Committee (IACUC) and strictly adhered to. MiR-18a was co-administered with Ago-2 (0.0008 nmol/mouse) to increase stability and cellular uptake^9 (Ferreira R, Santos T, Amar A, et al. Argonaute-2 promotes miR-18a entry in human brain endothelial cells. J Am Heart Assoc. 2014; 3(3):e000968). (FIG. 9). Details about randomization, blinding, group size and inclusion/exclusion criteria have been included in Methods. […] The vascular data was quantified using ImageJ. […] The pixels were analyzed as particles and normalized to results from the wildtype mice (WT, Mgp^+/+)."}}, "data": [{"substance": "hsa-miR-18a-5p (UAGGUGCAUCUAGUGCAGAUAG; chemistry not given here; listed as Homo sapiens) [small non-coding RNA molecule involved in post-transcriptional regulation of gene expression; Dharmacon]", "values": [{"measurement": "MMP9 protein levels (western blot)", "setting": "AVM-BEC; AVM-BEC", "value": "not significantly (P=0.9409) affected"}, {"measurement": "ratio MMP2/MMP9 protein levels", "setting": "AVM-BEC; AVM-BEC", "value": "lowers the ratio MMP2/MMP9"}, {"measurement": "ADAM10 protein levels (western blot)", "setting": "AVM-BEC; AVM-BEC, P<0.001", "value": "significantly decreased"}, {"measurement": "MMP2 protein levels (western blot)", "setting": "AVM-BEC; AVM-BEC, P=0.0132", "value": "significantly decreased"}, {"measurement": "levels of TGF-β (western blot)", "setting": "AVM-BEC; AVM-BEC, P>0.9999", "value": "not significantly changed"}, {"measurement": "phosphorylation levels of Smad3", "setting": "AVM-BEC; AVM-BEC, P>0.9999", "value": "Neither the phosphorylation levels of Smad3 nor the total levels of Smad4 were altered"}, {"measurement": "total levels of Smad4", "setting": "AVM-BEC; AVM-BEC, P>0.9999", "value": "Neither the phosphorylation levels of Smad3 nor the total levels of Smad4 were altered"}, {"measurement": "phosphorylation levels of Smad1/5", "setting": "AVM-BEC; AVM-BEC, vs scramble", "value": "significantly (P<0.0001) decreased"}, {"measurement": "PAI-1 protein levels (western blot)", "setting": "AVM-BEC; patient-derived AVM-BEC, vs scramble microRNA, P<0.001, n=8", "value": "decreased"}, {"measurement": "AzACA vessel density compared to healthy wildtype mice", "setting": "[1]; 0.08 nmol/mouse IN daily for 2-weeks with Ago-2", "value": "92-94%"}, {"measurement": "brain vasculature and leakage (CTA)", "setting": "[1]; Mgp^−/− mice, IN 2-weeks", "value": "normalized"}, {"measurement": "calcifications found in carotids", "setting": "[1]; Mgp^−/− mice, IN 2-weeks", "value": "no effect"}]}]}
